Data taken from patent US20230099441A1, “HETEROCYCLIC COMPOUND, APPLICATION THEREOF, AND COMPOSITION CONTAINING SAME” (GenEros Biopharma Ltd., priority 2019, published 2023).

Assays:
[1] = test system: mouse collagen-induced arthritis model; experiment: Therapeutic efficacy in a mouse collagen-induced arthritis model (clinical score); assay type: in vivo; conditions: for clinical score of arthritis, Mean (the larger the value, the more severe the disease): mean of group, total score 0-12, oral, Methotrexate 0.25 mg/kg once a week, Tofacitinib 5 mg/kg once a day, X8 1 mg/kg once a day
Description: Example of Effect 2: Evaluation of the Therapeutic Efficacy of X8 Compound in a Mouse Collagen-Induced Arthritis Model
(§1) Sixty male DBA/1J mice (9-10 weeks old, H-2q haplotype) were acclimatized in a standard animal room for one week and then randomly divided into 5 groups. Except for the healthy control group, the rest were inoculated with collagen antigen injection, and then received oral treatment with different compounds. The brief procedure was to mix bovine type II collagen (purchased from Chondrex, 20021) with an equal volume of Freund's complete adjuvant (purchased from Sigma, F5881), the concentration was 4 mg/ml, and it was treated with a homogenizer at a speed of 20,000 revolutions/min for 5-10 minutes. A needle was inserted between the left side of the dorsal caudal artery and the lateral vein of the mouse, and 50 microliters of modeling agent was injected subcutaneously. 21 days after the first injection, another injection was injected between the right side of the dorsal tail artery and the lateral vein of the mouse. After the first injection, oral administration was started. The drug was formulated with […] PEG300, and it was prepared for immediate use. […] The total score was between 0-12 points, and the swelling of the foot after vaccination was not calculated.

[2] = Body weight of animals in the mouse collagen-induced arthritis model; assay type: in vivo; conditions: oral, X8 1 mg/kg once a day; for body weight of animals, Mean/g: mean of group, Methotrexate 0.25 mg/kg once a week, Tofacitinib 5 mg/kg once a day
Description: as §1

[3] = test system: STAT5 Y694 phosphorylation; experiment: Protein electrophoresis and blotting of STAT5 Y694 phosphorylation in Jurkat cells stimulated with human interferon beta; assay type: cell-based; conditions: for Inhibiting Ratio (0% for vehicle control): 1 hour pretreatment, 20 ng/ml human interferon beta 30 minutes, pSTAT5/GAPDH
Procedure, shortened: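 Serum-free Jurkat cells pretreated with compound 1 h, then stimulated with 20 ng/ml human interferon beta for 30 min at 37° C. pSTAT5 measured by western blot with chemiluminescence, normalized to GAPDH and expressed as percent of DMSO control.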

SMILES: O=C(Cc1ccc(C(F)(F)F)cc1)N1CCC(n2c(=O)[nH]c3ccccc32)CC1 [Example X8, 1-(1-(2-(4-(trifluoromethyl)phenyl)acetyl)piperidin-4-yl)-1H-benzo[d]imidazole-2(3H)-one]
- therapeutic effect on severity of the disease (in words) ([1]; X8 1 mg/kg once a day oral, compared with tofacitinib 5 mg/kg once a day): comparable effects to the tofacitinib treatment group, which significantly reduced the severity of the disease
- clinical score of arthritis, Mean (the larger the value, the more severe the disease) ([1]; day 0): 0.00
- clinical score of arthritis, Mean (the larger the value, the more severe the disease) ([1]; day 21): 0.00
- clinical score of arthritis, Mean (the larger the value, the more severe the disease) ([1]; day 25): 0.00
- clinical score of arthritis, Mean (the larger the value, the more severe the disease) ([1]; day 28): 0.98
- clinical score of arthritis, Mean (the larger the value, the more severe the disease) ([1]; day 31): 1.66
- clinical score of arthritis, Mean (the larger the value, the more severe the disease) ([1]; day 33): 2.39
- clinical score of arthritis, Mean (the larger the value, the more severe the disease) ([1]; day 35): 2.64
- clinical score of arthritis, Mean (the larger the value, the more severe the disease) ([1]; day 38): 2.87
- clinical score of arthritis, Mean (the larger the value, the more severe the disease) ([1]; day 40): 2.87
- clinical score of arthritis, Mean (the larger the value, the more severe the disease) ([1]; day 42): 3.17
- clinical score of arthritis, Mean (the larger the value, the more severe the disease) ([1]; day 45): 3.39
- body weight of animals, Mean/g ([2]; day 0): 21.50 g
- body weight of animals, Mean/g ([2]; day 4): 21.52 g
- body weight of animals, Mean/g ([2]; day 7): 21.93 g
- body weight of animals, Mean/g ([2]; day 11): 21.90 g
- body weight of animals, Mean/g ([2]; day 14): 21.92 g
- body weight of animals, Mean/g ([2]; day 18): 22.23 g
- body weight of animals, Mean/g ([2]; day 20): 22.50 g
- body weight of animals, Mean/g ([2]; day 25): 22.07 g
- body weight of animals, Mean/g ([2]; day 28): 21.82 g
- body weight of animals, Mean/g ([2]; day 31): 21.71 g
- body weight of animals, Mean/g ([2]; day 33): 21.82 g
- body weight of animals, Mean/g ([2]; day 35): 21.55 g
- body weight of animals, Mean/g ([2]; day 38): 21.71 g
- body weight of animals, Mean/g ([2]; day 40): 21.64 g
- body weight of animals, Mean/g ([2]; day 42): 21.61 g
- body weight of animals, Mean/g ([2]; day 45): 21.98 g
- effect on body weight of animals (in words) ([2]; whole experiment, days 0-45, methotrexate 0.25 mg/kg once a week, tofacitinib 5 mg/kg once a day): no significant effect on body weight of animals, and no drastic changes were seen
- Inhibiting Ratio (0% for vehicle control) ([3]; 1 μM): 6.9%
- Inhibiting Ratio (0% for vehicle control) ([3]; 10 μM): 31.4%
- Inhibiting Ratio (0% for vehicle control) ([3]; 100 μM): 95.6%
- Example of Effect 1: Inhibiting Ability (Protein Electrophoresis and Blotting) ([3]; observed pSTAT5 bands at 10 μM and 100 μM): +
